{"source": "ChEMBL document CHEMBL4616678", "about": "“Design, Synthesis, and Physicochemical and Pharmacological Profiling of 7-Hydroxy-5-oxopyrazolo[4,3-b]pyridine-6-carboxamide Derivatives with Antiosteoarthritic Activity In Vivo” (J Med Chem, 2020)", "key": {"[1]": {"test": "Kinetic solubility of the compound at pH 1.0 by HPLC-UV method", "format": "physicochemical", "settings": "buffer, read-out: Kinetic_solubility"}, "Rattus norvegicus [2]": {"tested_on": "Rattus norvegicus", "test": "Analgesic activity in MIA induced Wistar rat assessed as hind limb withdrawal threshold at 1 mg/kg, ip injection after 300 mins in presence of AM-630 by PAM test", "format": "functional, organism-based"}, "[3]": {"test": "Kinetic solubility of the compound at pH 7.4 by HPLC-UV method", "format": "physicochemical", "settings": "buffer, read-out: Kinetic_solubility"}, "[4]": {"test": "Induction of extracellular matrix production in human NHAC-kn cells assessed as sGAG level at 7.5 uM after 1 day by UV-visible spectrophotometer analysis (reference value: 9.3 +/- 0.2 ug)", "format": "functional"}, "[5]": {"test": "Induction of extracellular matrix production in human NHAC-kn cells assessed as sGAG level at 7.5 uM after 7 days by UV-visible spectrophotometer analysis (reference value: 11.2 +/- 0.4 ug)", "format": "functional"}, "[6]": {"test": "Ionization Constants, pKa of the compound by UV-vis spectra analysis", "format": "physicochemical"}, "Cannabinoid receptor 2 [7]": {"target": "T1, Cannabinoid receptor 2 (Homo sapiens, UniProt P34972)", "T1 sequence (P34972 whole entry)": "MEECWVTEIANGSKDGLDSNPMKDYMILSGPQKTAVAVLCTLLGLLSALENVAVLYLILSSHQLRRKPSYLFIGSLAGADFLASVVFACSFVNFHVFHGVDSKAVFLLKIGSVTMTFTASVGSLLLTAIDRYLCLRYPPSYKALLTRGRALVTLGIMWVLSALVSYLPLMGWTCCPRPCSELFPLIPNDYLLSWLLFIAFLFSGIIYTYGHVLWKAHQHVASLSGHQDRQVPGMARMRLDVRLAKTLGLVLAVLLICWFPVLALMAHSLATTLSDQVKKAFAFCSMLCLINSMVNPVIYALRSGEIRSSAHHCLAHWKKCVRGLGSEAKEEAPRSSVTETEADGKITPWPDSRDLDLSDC", "test": "Agonist activity at recombinant human CB2R expressed in CHOK1 cells assessed as inhibition of NKH477-stimulated intracellular cAMP levels after 30 mins by chemiluminescent detection based cAMP Hunter assay", "format": "functional, cell-based, CHO-K1"}, "Rattus norvegicus [8]": {"tested_on": "Rattus norvegicus", "test": "Analgesic activity in MIA induced Wistar rat assessed as differences in forces applied between rear left and rear right injured paws at 1 mg/kg, ip injection after 60 mins in presence of AM-630 by KWB test", "format": "functional, organism-based"}, "[9]": {"test": "Cytotoxicity against human NHAC-kn assessed as reduction in cell viability at 7.5 uM after 1 day by Neutral red dye-based UV-visible spectrophotometer analysis (reference value: 46 +/- 6%)", "format": "functional"}, "Rattus norvegicus [10]": {"tested_on": "Rattus norvegicus", "test": "Analgesic activity in MIA induced Wistar rat assessed as differences in forces applied between rear left and rear right injured paws at 1 mg/kg, ip injection after 60 mins by KWB test", "format": "functional, organism-based"}, "Rattus norvegicus [11]": {"tested_on": "Rattus norvegicus", "test": "Analgesic activity in MIA induced Wistar rat assessed as hind limb withdrawal threshold at 1 mg/kg, ip injection after 300 mins by PAM test", "format": "functional, organism-based"}, "[12]": {"test": "Cytotoxicity against human NHAC-kn assessed as reduction in cell viability after 1 to 14 days by Neutral red dye-based UV-visible spectrophotometer analysis", "format": "functional"}, "Cannabinoid receptor 2 [13]": {"target": "T1, Cannabinoid receptor 2", "test": "Antagonist activity at TNF-alpha induced CB2R in human HC-OA cells assessed as decreased in IL-1beta mRNA production preincubated for 1 hr followed by TNF-alpha stimulation measured after 5 hrs by RT-PCR analysis", "format": "cell-based"}, "[14]": {"test": "Induction of extracellular matrix production in human NHAC-kn cells assessed as sGAG/HYP level at 7.5 uM after 14 days by UV-visible spectrophotometer analysis (reference value: 0.9 +/- 0.2 ug)", "format": "functional"}, "NIH3T3": {"tested_on": "NIH3T3", "test": "Cytotoxicity against mouse NIH/3T3 assessed as reduction in cell viability after 1 to 14 days by Neutral red dye-based UV-visible spectrophotometer analysis", "format": "functional"}, "Cannabinoid receptor 2 [15]": {"target": "T1, Cannabinoid receptor 2", "test": "Displacement of [3H]-CP-55,940 from recombinant human CB2R expressed in HEK293 cell membranes"}, "Cannabinoid receptor 2 [16]": {"target": "T1, Cannabinoid receptor 2", "test": "Antagonist activity at TNF-alpha induced CB2R in human HC-OA cells assessed as decreased in IL-1beta mRNA production preincubated for 1 hr followed by TNF-alpha stimulation measured after 5 hrs in presence of AM-630 by RT-PCR analysis", "format": "cell-based"}, "Cannabinoid receptor 1": {"target": "Cannabinoid receptor 1 (Homo sapiens, UniProt P21554)", "sequence (P21554 whole entry)": "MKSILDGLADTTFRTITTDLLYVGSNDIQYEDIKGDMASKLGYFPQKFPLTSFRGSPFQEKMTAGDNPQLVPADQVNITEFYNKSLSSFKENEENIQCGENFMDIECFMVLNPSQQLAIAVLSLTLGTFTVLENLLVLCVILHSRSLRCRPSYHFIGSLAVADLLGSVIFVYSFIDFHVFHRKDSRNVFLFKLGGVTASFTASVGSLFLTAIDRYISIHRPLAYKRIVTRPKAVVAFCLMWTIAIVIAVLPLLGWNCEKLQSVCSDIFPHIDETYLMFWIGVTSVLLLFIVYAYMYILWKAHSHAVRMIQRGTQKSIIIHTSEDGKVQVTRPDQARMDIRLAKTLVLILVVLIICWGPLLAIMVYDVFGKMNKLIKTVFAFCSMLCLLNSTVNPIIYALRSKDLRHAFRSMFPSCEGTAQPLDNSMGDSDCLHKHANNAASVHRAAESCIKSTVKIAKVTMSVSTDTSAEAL", "test": "Displacement of [3H]-CP-55,940 from recombinant human CB1R expressed in HEK293 cell membranes"}, "[17]": {"test": "Induction of extracellular matrix production in human NHAC-kn cells assessed as HYP level at 7.5 uM after 1 day by UV-visible spectrophotometer analysis (reference value: 9.9 +/- 0.3 ug)", "format": "functional"}, "[18]": {"test": "Induction of extracellular matrix production in human NHAC-kn cells assessed as sGAG/HYP level at 7.5 uM after 1 day by UV-visible spectrophotometer analysis (reference value: 0.9 +/- 0.1 ug)", "format": "functional"}, "[19]": {"test": "Induction of extracellular matrix production in human NHAC-kn cells assessed as HYP level at 7.5 uM after 14 days by UV-visible spectrophotometer analysis (reference value: 14.2 +/- 0.4 ug)", "format": "functional"}, "[20]": {"test": "Cytotoxicity against human NHAC-kn assessed as reduction in cell viability at 7.5 uM after 14 days by Neutral red dye-based UV-visible spectrophotometer analysis (reference value: 100 +/- 11%)", "format": "functional"}, "[21]": {"test": "Induction of extracellular matrix production in human NHAC-kn cells assessed as sGAG/HYP level at 7.5 uM after 7 days by UV-visible spectrophotometer analysis (reference value: 0.8 +/- 0.2 ug)", "format": "functional"}, "[22]": {"test": "Lipophilicity, log P of the compound by UV-vis spectra analysis", "format": "physicochemical", "settings": "octanol/water"}, "[23]": {"test": "Induction of extracellular matrix production in human NHAC-kn cells assessed as HYP level at 7.5 uM after 7 days by UV-visible spectrophotometer analysis (reference value: 13.2 +/- 0.3 ug)", "format": "functional"}, "[24]": {"test": "Cytotoxicity against human NHAC-kn assessed as reduction in cell viability at 7.5 uM after 7 days by Neutral red dye-based UV-visible spectrophotometer analysis (reference value: 73 +/- 8%)", "format": "functional"}, "[25]": {"test": "Induction of extracellular matrix production in human NHAC-kn cells assessed as sGAG level at 7.5 uM after 14 days by UV-visible spectrophotometer analysis (reference value: 12.0 +/- 0.4 ug)", "format": "functional"}}, "note": "The source made the active and inactive calls."}
{"smiles": "CCCCN1C(=O)C(C(=O)NC23CC4CC(CC(C4)C2)C3)=C(O)C2C1C=NN2C", "note": "(configuration not stated)", "values": [{"measurement": "solubility kinetic", "setting": "[1]", "result": 0.13, "unit": "µg/mL"}, {"measurement": "Activity", "setting": "Rattus norvegicus [2]", "result": "inactive"}, {"measurement": "solubility kinetic", "setting": "[3]", "result": 0.49, "unit": "µg/mL"}, {"measurement": "Activity", "setting": "[4]", "result": 8.9, "unit": "%"}, {"measurement": "Activity", "setting": "[5]", "result": 12.6, "unit": "%"}, {"measurement": "pKa", "setting": "[6]", "result": 8}, {"measurement": "EC50", "setting": "Cannabinoid receptor 2 [7]", "result": 0.11, "unit": "µM"}, {"measurement": "Activity", "setting": "Rattus norvegicus [8]", "result": "inactive"}, {"measurement": "Activity", "setting": "[9]", "result": 51, "unit": "%"}, {"measurement": "Activity", "setting": "Rattus norvegicus [10]", "result": "Active"}, {"measurement": "Activity", "setting": "Rattus norvegicus [11]", "result": "Active"}, {"measurement": "IC50", "setting": "[12]", "result": 12.5, "unit": "µM"}, {"measurement": "Activity", "setting": "Cannabinoid receptor 2 [13]", "result": "Active"}, {"measurement": "Activity", "setting": "[14]", "result": 1, "unit": "%"}, {"measurement": "IC50", "setting": "NIH3T3", "result": 25, "unit": "µM"}, {"measurement": "Ki", "setting": "Cannabinoid receptor 2 [15]", "result": 0.0018, "unit": "µM"}, {"measurement": "Activity", "setting": "Cannabinoid receptor 2 [16]", "result": "inactive"}, {"measurement": "Ki", "setting": "Cannabinoid receptor 1", "result": 0.069, "unit": "µM"}, {"measurement": "Activity", "setting": "[17]", "result": 10.1, "unit": "%"}, {"measurement": "Activity", "setting": "[18]", "result": 0.9, "unit": "%"}, {"measurement": "Activity", "setting": "[19]", "result": 13.9, "unit": "%"}, {"measurement": "Activity", "setting": "[20]", "result": 94, "unit": "%"}, {"measurement": "Activity", "setting": "[21]", "result": 1, "unit": "%"}, {"measurement": "logP", "setting": "[22]", "result": 5.3}, {"measurement": "Activity", "setting": "[23]", "result": 12.9, "unit": "%"}, {"measurement": "Activity", "setting": "[24]", "result": 68, "unit": "%"}, {"measurement": "Activity", "setting": "[25]", "result": 14.2, "unit": "%"}]}
